Laboratory results published in patent publication US10071244B2, “Thoracoscopic electroporation device with a suction head and with needle electrodes” (UNIVERSITY COLLEGE CORK—NATIONAL UNIVERSITY OF IRELAND, CORK, priority 2012, dated 2018).

Test system: tumour tissue
Assay: Evans Blue perfusion test in tumour-bearing mouse
Assay type: in vivo
Excerpt: FIG. 53 illustrates the result of an Evans Blue perfusion test;
Perfusion • A. One of the physiological impediments reducing the efficacy of chemotherapy relates to the poor diffusion of the drug from the capillaries through to the interstitial spaces surrounding the tumour cells. Poor lymphatic drainage and an irregular vasculature leads to the tumour interstitial pressure increasing with time as the tumour grows. This positive pressure is the opposite of normal tissue where a slightly negative interstitial pressure allows for convection of molecules across the capillaries. See FIG. 51 in which the X-axis represents the tumour volume in cm^3, Y-axis represents tumour interstitial pressure readings in mmHg. Each dot represents one TIP reading at a given tumour volume. Linear line represents correlation coefficients between tumour volume and TIP. • B. The positive pressure within the tumour tissue can be immediately negated through the placement of a vacuum directly on the tumour tissue. […] This facilitates better drug perfusion throughout the tumour interstitial spaces (between the cells) by allowing convection of macromolecules from the capilliaries to the […]. • C. This correction allows for perfusion of the chemotherapy from the capillaries into the tumour tissue. […]

- dye perfusion into tumour, no vacuum (15 mins after injection into blood supply, tumour excised and dissected): only the periphery has absorbed the dye
SMILES: Cc1cc(-c2ccc(/N=N/c3ccc4c(S(=O)(=O)O)cc(S(=O)(=O)O)c(N)c4c3O)c(C)c2)ccc1/N=N/c1ccc2c(S(=O)(=O)O)cc(S(=O)(=O)O)c(N)c2c1O [Evans blue]
- dye perfusion into tumour, with vacuum (vacuum applied to the tumour for 1 minute at 200 mmHg of negative pressure): Deep permeation of the dye is achieved throughout the tumour tissue
